Laboratory results: patent US9376705B2, “Method for detecting susceptibility of microorganisms to chemical agents” (Idmic SA, priority 2012, dated 2016)

What was measured:
Assay type in all cases: cell-based
[1] = tested on: Escherichia coli strain resistant to ampicillin and ceftriaxone; assay: Susceptibility testing by MALDI-TOF mass spectra of culture supernatant, Escherichia coli strain resistant to ampicillin and ceftriaxone; conditions: treatment with 8 mg/L; resistant E. coli strain; FIG. 3
Procedure: (§1) In a first process step 10, approximately ten colonies of microorganisms of the bacterial type Enterobacteriaceae are added to 1 mL of a liquid Müller-Hinton broth nutrient medium. The turbidity of the microorganisms in the liquid nutrient medium is 0.5 on McFarland standards, corresponding to approximately 1.5×10^8 colony forming units/mL.
(§2) In a second process step 20, 5 μL of 5-25 mM, especially 25 mM of a water-soluble salt of malic acid or ascorbic acid, for example sodium malate as an enhancer for Enterobacteriaceae family bacteria is added into the liquid nutrient medium. The enhancer may also be added into the liquid nutrient medium in solid form.
(§3) In a third process step 30, the microorganisms in the nutrient medium are pre-incubated at 37° C. for 30 minutes.
(§4) In a fourth process step 40, a quantity of a chemical agent or antibiotic equal to the threshold level of the given microorganism according to the Clinical and Laboratory Standards Institute is added to the microorganisms in the liquid nutrient medium.
(§5) In a fifth process step 50, the microorganisms in the nutrient medium are incubated at 37° C. for 60 minutes.
(§6) In a sixth process step 60, the microorganisms are removed from the nutrient medium by centrifugation at 10′000 g or 15′000 g for 5 minutes at room temperature. The remaining supernatant is collected in a new experimental tube. […]

[2] = tested on: Citrobacter ssp strain susceptible to ampicillin and ceftriaxone; assay: Susceptibility testing by MALDI-TOF mass spectra of culture supernatant, Citrobacter ssp strain susceptible to ampicillin and ceftriaxone; conditions: treatment with 8 mg/L, FIG. 4
Procedure: as §1, §2, §3, §4, §5, §6

[3] = tested on: Escherichia coli strain susceptible to ampicillin and ceftriaxone; assay: Susceptibility testing by MALDI-TOF mass spectra of culture supernatant, Escherichia coli strain susceptible to ampicillin and ceftriaxone; conditions: treatment with 8 mg/L; susceptible E. coli strain; FIG. 2
Procedure: as §1, §2, §3, §4, §5, §6

Compound | effect on bacteria as seen in mass spectrum of supernatant (protein/peptide signals) [1] | effect on bacteria as seen in mass spectrum of supernatant (protein/peptide signals) [2] | effect on bacteria as seen in mass spectrum of supernatant (protein/peptide signals) [3]
CC1(C)S[C@@H]2[C@H](NC(=O)[C@H](N)c3ccccc3)C(=O)N2[C@H]1C(=O)O [ampicillin] | no further significant signal | has been destroyed | has been destroyed
CO/N=C(\C(=O)N[C@@H]1C(=O)N2C(C(=O)O)=C(CSc3nc(=O)c(=O)[nH]n3C)CS[C@H]12)c1csc(N)n1 [ceftriaxone] | no further significant signal | has been destroyed | has been destroyed
